Measured values from patent US12624044B2, “SMARCA degraders and uses thereof” (Kymera Therapeutics, Inc., priority 2019, dated 2026).

Biological target: SMARCA2 (Homo sapiens, UniProt P51531)
Assay: MSD SMARCA2 degradation in NCI-H1299 cell line (24 h)
Format: cell-based
Design: HC: NCI-H1299 cells treated with DMSO; host or cells: NCI-H1299
Conditions: for DC50: NCI-H1299 cells, read-out: SMARCA2 MSD H1299 degradation 24 h: External Abs-DC50; for Dmax: NCI-H1299, NCI-H1299 cells
Procedure: Example 32. MSD SMARCA2 Degradation in […] Cell Line
Cell Culture: Cells were cultured in exponential growth phase.
Compound Preparation and Treatment: NCI-H1299 cells were seeded into the 96-well plate at 4.0*10^4 cells per 100 ul per well. Incubate the plate in the incubator overnight. The next day, compounds were diluted to designed stock concentration by TECAN, then perform a 3 fold, 9-point dilution via transferring 15 uL compound into 30 μL DMSO using Apricot. 200 nL diluted compound from compound source plate were transferred into the 96-intermediate plate as designated by using Echo550, followed with 100 ul culture medium to make the 2× compound solution. Cell plate were changed with 80 ul of fresh culture medium and 80 ul of 2× compound solution was added into the well to achieve the final designed concentration. Cell plate was then shaken at 720 rpm for 5 min and incubated for 24 hours in the incubator.
Sample Preparation: Media was aspirated from the cultures and the plate was washed with PBS twice. 60 ul of pre-chilled PIPA lysis buffer (Boston BioProducts BP-115D) with protease inhibitor were directly added into the well to lyze the cells for 20 minutes at 4° C. Cell lysates were collected.
MSD Procedure: The MSD plate was coated with 40 ul cell lysate and incubated at 4° C. overnight. The next day, the MSD coated bare plate was washed 3 times with 150 ul 1×TBST per well, blocked with 150 ul of blocking buffer per well, and shaken for 1 hour at RT, 600 rpm. Blocking buffer was 3% Blocker A in TBST. MSD plate was then washed 3 times with 150 ul 1×TBST per well and Primary Detection antibody (Rabbit anti-SMARCA2/BRM antibody, 100 μg/ml, ab223735) was added to a final [conc.]: 0.3 ug/ml, 25 ul/well and shaken for 1 hour at RT, 600 rpm. Antibody was prepared in Antibody Detection buffer (1% Blocker A in 1×TBST). The MSD plate was then washed 3 times with 150 ul 1×TBST per well. Secondary Detection antibody (SULFO-TAG anti-species antibody) was then added to a final [conc.]: 1 ug/ml, 25 ul/well, and shaken for 1 hour at RT, 600 rpm. Antibodies were prepared in Antibody Detection buffer (1% Blocker A in 1×TBST). MSD plate was washed 3 times with 150 ul 1×TBST per well and 2×MSD reading buffer was added, 150 ul per well, and diluted from 4× with water. MSD instrument was then read.
Data Analysis: The percentage of relative level of SMARCA2 level was calculated following equation below.
LC: A2780, SMARCA2 negative cells. HC: NCI-H1299 cells treated with DMSO.
The letter codes for the percentage of SMARCA2 degradation after 24 hours (Dmax %) include: A (>90% degradation), B (>70-90 degradation), C (50-70 degradation), and D (<50% degradation).

Sequence of SMARCA2 (P51531 whole entry): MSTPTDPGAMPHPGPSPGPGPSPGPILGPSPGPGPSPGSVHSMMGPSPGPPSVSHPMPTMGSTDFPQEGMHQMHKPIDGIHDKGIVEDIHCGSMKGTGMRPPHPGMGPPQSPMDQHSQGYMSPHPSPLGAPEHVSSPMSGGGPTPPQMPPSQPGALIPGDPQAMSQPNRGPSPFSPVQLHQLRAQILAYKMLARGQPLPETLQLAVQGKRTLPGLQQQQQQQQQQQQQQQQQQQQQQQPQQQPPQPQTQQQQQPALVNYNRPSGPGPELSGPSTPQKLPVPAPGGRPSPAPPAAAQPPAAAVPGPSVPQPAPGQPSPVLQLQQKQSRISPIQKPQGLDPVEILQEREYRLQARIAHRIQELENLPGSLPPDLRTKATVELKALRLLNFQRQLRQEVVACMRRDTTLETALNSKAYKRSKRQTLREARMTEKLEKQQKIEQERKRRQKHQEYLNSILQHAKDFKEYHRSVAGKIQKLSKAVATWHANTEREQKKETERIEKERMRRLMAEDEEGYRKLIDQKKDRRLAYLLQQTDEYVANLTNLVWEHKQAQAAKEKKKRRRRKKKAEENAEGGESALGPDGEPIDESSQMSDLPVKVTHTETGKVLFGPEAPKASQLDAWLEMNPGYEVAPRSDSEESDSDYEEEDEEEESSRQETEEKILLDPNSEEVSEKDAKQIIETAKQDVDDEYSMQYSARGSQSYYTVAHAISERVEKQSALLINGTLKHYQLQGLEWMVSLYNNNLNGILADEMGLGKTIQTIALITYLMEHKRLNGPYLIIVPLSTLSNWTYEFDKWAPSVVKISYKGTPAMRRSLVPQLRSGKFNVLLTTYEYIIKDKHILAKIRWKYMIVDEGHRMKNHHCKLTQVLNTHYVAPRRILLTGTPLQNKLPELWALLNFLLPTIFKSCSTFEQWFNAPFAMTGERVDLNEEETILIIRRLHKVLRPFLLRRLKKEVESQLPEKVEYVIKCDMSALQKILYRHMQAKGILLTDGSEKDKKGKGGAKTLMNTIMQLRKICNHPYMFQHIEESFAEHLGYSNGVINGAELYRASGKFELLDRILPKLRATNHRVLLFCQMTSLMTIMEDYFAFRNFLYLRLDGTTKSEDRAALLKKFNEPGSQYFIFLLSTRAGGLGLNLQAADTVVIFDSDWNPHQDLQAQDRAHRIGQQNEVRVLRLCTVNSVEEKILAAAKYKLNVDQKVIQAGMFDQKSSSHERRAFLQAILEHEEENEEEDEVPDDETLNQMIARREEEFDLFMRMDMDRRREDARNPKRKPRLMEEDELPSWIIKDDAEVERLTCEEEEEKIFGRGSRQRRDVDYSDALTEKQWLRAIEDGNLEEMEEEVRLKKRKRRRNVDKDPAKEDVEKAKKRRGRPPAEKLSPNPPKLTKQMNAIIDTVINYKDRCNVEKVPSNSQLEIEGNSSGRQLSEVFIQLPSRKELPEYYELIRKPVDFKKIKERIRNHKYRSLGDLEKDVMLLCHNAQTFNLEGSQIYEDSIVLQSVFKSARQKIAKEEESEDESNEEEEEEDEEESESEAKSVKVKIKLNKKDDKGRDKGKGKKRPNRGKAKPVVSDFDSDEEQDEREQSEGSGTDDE

| DC50 [nM] | Dmax [%] | SMILES |
| --- | --- | --- |
| > 1000 | < 50 | Cn1c(=O)n(C2CCC(=O)NC2=O)c2ccc(CCCCc3cn(Cc4cccc(N5C[C@H]6C[C@@H]5CN6/C=C/C(=O)c5ccccc5O)n4)nn3)cc21 (stereo partly drawn) [I-44] |
| 100 to 500 | 70 to 90 | Cn1c(=O)n(C2CCC(=O)NC2=O)c2cccc(CCCCc3cn(Cc4cccc(N5C[C@H]6C[C@@H]5CN6/C=C/C(=O)c5ccccc5O)n4)nn3)c21 (stereo partly drawn) [I-49] |
| > 1000 | < 50 | Cn1c(=O)n(C2CCC(=O)NC2=O)c2cccc(CCCCCc3cn(Cc4cccc(N5C[C@H]6C[C@@H]5CN6/C=C/C(=O)c5ccccc5O)n4)nn3)c21 (stereo partly drawn) [I-50] |
| > 1000 | < 50 | Cn1c(=O)n(C2CCC(=O)NC2=O)c2cccc(CCCCCCc3cn(Cc4cccc(N5C[C@H]6C[C@@H]5CN6/C=C/C(=O)c5ccccc5O)n4)nn3)c21 (stereo partly drawn) [I-51] |
| > 1000 | < 50 | Cn1c(=O)n(C2CCC(=O)NC2=O)c2cccc(CCCCCCCc3cn(Cc4cccc(N5C[C@H]6C[C@@H]5CN6/C=C/C(=O)c5ccccc5O)n4)nn3)c21 (stereo partly drawn) [I-52] |
| > 1000 | < 50 | Cn1c(=O)n(C2CCC(=O)NC2=O)c2cccc(CCCCCCCCc3cn(Cc4cccc(N5C[C@H]6C[C@@H]5CN6/C=C/C(=O)c5ccccc5O)n4)nn3)c21 (stereo partly drawn) [I-53] |
| > 1000 | < 50 | Cn1c(=O)n(C2CCC(=O)NC2=O)c2ccc(C#CCCc3cn(Cc4cccc(N5C[C@H]6C[C@@H]5CN6/C=C/C(=O)c5ccccc5O)n4)nn3)cc21 (stereo partly drawn) [I-59] |
| > 1000 | < 50 | Cn1c(=O)n(C2CCC(=O)NC2=O)c2ccc(C#CCCCc3cn(Cc4cccc(N5C[C@H]6C[C@@H]5CN6/C=C/C(=O)c5ccccc5O)n4)nn3)cc21 (stereo partly drawn) [I-60] |
| > 1000 | < 50 | Cn1c(=O)n(C2CCC(=O)NC2=O)c2ccc(C#CCCCCc3cn(Cc4cccc(N5C[C@H]6C[C@@H]5CN6/C=C/C(=O)c5ccccc5O)n4)nn3)cc21 (stereo partly drawn) [I-61] |
| > 1000 | < 50 | Cn1c(=O)n(C2CCC(=O)NC2=O)c2ccc(C#CCCCCCc3cn(Cc4cccc(N5C[C@H]6C[C@@H]5CN6/C=C/C(=O)c5ccccc5O)n4)nn3)cc21 (stereo partly drawn) [I-62] |
| > 1000 | < 50 | Cn1c(=O)n(C2CCC(=O)NC2=O)c2ccc(C#CCCCCCCc3cn(Cc4cccc(N5C[C@H]6C[C@@H]5CN6/C=C/C(=O)c5ccccc5O)n4)nn3)cc21 (stereo partly drawn) [I-63] |
| > 1000 | 70 to 90 | Cn1c(=O)n(C2CCC(=O)NC2=O)c2cccc(C#CCCc3cn(Cc4cccc(N5C[C@H]6C[C@@H]5CN6/C=C/C(=O)c5ccccc5O)n4)nn3)c21 (stereo partly drawn) [I-64] |
| > 1000 | < 50 | Cn1c(=O)n(C2CCC(=O)NC2=O)c2cccc(C#CCCCc3cn(Cc4cccc(N5C[C@H]6C[C@@H]5CN6/C=C/C(=O)c5ccccc5O)n4)nn3)c21 (stereo partly drawn) [I-65] |
| > 1000 | < 50 | Cn1c(=O)n(C2CCC(=O)NC2=O)c2cccc(C#CCCCCc3cn(Cc4cccc(N5C[C@H]6C[C@@H]5CN6/C=C/C(=O)c5ccccc5O)n4)nn3)c21 (stereo partly drawn) [I-66] |
| > 1000 | < 50 | Cn1c(=O)n(C2CCC(=O)NC2=O)c2cccc(C#CCCCCCc3cn(Cc4cccc(N5C[C@H]6C[C@@H]5CN6/C=C/C(=O)c5ccccc5O)n4)nn3)c21 (stereo partly drawn) [I-67] |
| > 1000 | < 50 | Cn1c(=O)n(C2CCC(=O)NC2=O)c2cccc(C#CCCCCCCc3cn(Cc4cccc(N5C[C@H]6C[C@@H]5CN6/C=C/C(=O)c5ccccc5O)n4)nn3)c21 (stereo partly drawn) [I-68] |

The remaining lines, values behind:

| SMILES | DC50 [nM] | Dmax [%] |
| --- | --- | --- |
| O=C1CCC(N2C(=O)c3cccc(OCCCc4cn(Cc5cccc(N6C[C@H]7C[C@@H]6CN7/C=C/C(=O)c6ccccc6O)n5)nn4)c3C2=O)C(=O)N1 (stereo partly drawn) [I-36, 2-(2,6-dioxo-3-piperidyl)-4-[3-[1-[[6-[(1R,4R)-5-[(E)-3-(2-hydroxyphenyl)-3-oxo-prop-1-enyl]-2,5-diazabicyclo[2.2.1]heptan-2-yl]-2-pyridyl]methyl]triazol-4-yl]propoxy]isoindoline-1,3-dione] | > 1000 |  |
| O=C1CCC(N2C(=O)c3cccc(OCCCCc4cn(Cc5cccc(N6C[C@H]7C[C@@H]6CN7/C=C/C(=O)c6ccccc6O)n5)nn4)c3C2=O)C(=O)N1 (stereo partly drawn) [I-37] | 501 to 1000 | > 90 |
| O=C1CCC(N2C(=O)c3cccc(NCCOCc4cn(Cc5cccc(N6C[C@H]7C[C@@H]6CN7/C=C/C(=O)c6ccccc6O)n5)nn4)c3C2=O)C(=O)N1 (stereo partly drawn) [I-38] | > 1000 |  |
| O=C1CCC(N2C(=O)c3cccc(OCCOCCc4cn(Cc5cccc(N6C[C@H]7C[C@@H]6CN7/C=C/C(=O)c6ccccc6O)n5)nn4)c3C2=O)C(=O)N1 (stereo partly drawn) [I-39] | > 1000 |  |
| O=C1CCC(N2C(=O)c3cccc(OCCOCCCc4cn(Cc5cccc(N6C[C@H]7C[C@@H]6CN7/C=C/C(=O)c6ccccc6O)n5)nn4)c3C2=O)C(=O)N1 (stereo partly drawn) [I-40] | > 1000 |  |
| CN1C(=O)CCC(N2C(=O)c3cccc(OCCCCc4cn(Cc5cccc(N6C[C@H]7C[C@@H]6CN7/C=C/C(=O)c6ccccc6O)n5)nn4)c3C2=O)C1=O (stereo partly drawn) [I-41] | > 1000 |  |
| CC(c1ccc(CNCCOCCOCCOCCCc2ccc3c(c2)n(C)c(=O)n3C2CCC(=O)NC2=O)cc1)n1cc(-c2cc(-c3ccccc3O)nnc2N)cn1 (stereo not drawn) [I-42, 3-(5-(1-(4-(1-(4-(3-amino-6-(2-hydroxyphenyl)pyridazin-4-yl)-1H-pyrazol-1-yl)ethyl)phenyl)-5,8,11-trioxa-2-azatetradecan-14-yl)-3-methyl-2-oxo-2,3-dihydro-1H-benzo[d]imidazol-1-yl)piperidine-2,6-dione] | > 1000 |  |
| Nc1nnc(-c2ccccc2O)cc1N1C[C@H]2C[C@@H]1CN2c1cccc(Cn2cc(CCCCOc3cccc4c3C(=O)N(C3CCC(=O)NC3=O)C4=O)nn2)n1 (stereo partly drawn) [I-43] | > 1000 | 70 to 90 |
| Cn1c(=O)n(C2CCC(=O)NC2=O)c2ccc(CCCCCc3cn(Cc4cccc(N5C[C@H]6C[C@@H]5CN6/C=C/C(=O)c5ccccc5O)n4)nn3)cc21 (stereo partly drawn) [I-45] | > 1000 | < 50 |
| Cn1c(=O)n(C2CCC(=O)NC2=O)c2ccc(CCCCCCc3cn(Cc4cccc(N5C[C@H]6C[C@@H]5CN6/C=C/C(=O)c5ccccc5O)n4)nn3)cc21 (stereo partly drawn) [I-46, 3-(5-(6-(1-((6-((1R,4R)-5-((E)-3-(2-hydroxyphenyl)-3-oxoprop-1-en-1-yl)-2,5-diazabicyclo[2.2.1]heptan-2-yl)pyridin-2-yl)methyl)-1H-1,2,3-triazol-4-yl)hexyl)-3-methyl-2-oxo-2,3-dihydro-1H-benzo[d]imidazol-1-yl)piperidine-2,6-dione] | > 1000 | 50 to 70 |
| Cn1c(=O)n(C2CCC(=O)NC2=O)c2ccc(CCCCCCCc3cn(Cc4cccc(N5C[C@H]6C[C@@H]5CN6/C=C/C(=O)c5ccccc5O)n4)nn3)cc21 (stereo partly drawn) [I-47] | > 1000 | < 50 |
| Cn1c(=O)n(C2CCC(=O)NC2=O)c2ccc(CCCCCCCCc3cn(Cc4cccc(N5C[C@H]6C[C@@H]5CN6/C=C/C(=O)c5ccccc5O)n4)nn3)cc21 (stereo partly drawn) [I-48] | > 1000 | < 50 |
| O=C1CCC(n2c(=O)n(CCCCc3cn(Cc4cccc(N5C[C@H]6C[C@@H]5CN6/C=C/C(=O)c5ccccc5O)n4)nn3)c3ccccc32)C(=O)N1 (stereo partly drawn) [I-54] | > 1000 | < 50 |
| O=C1CCC(n2c(=O)n(CCCCCc3cn(Cc4cccc(N5C[C@H]6C[C@@H]5CN6/C=C/C(=O)c5ccccc5O)n4)nn3)c3ccccc32)C(=O)N1 (stereo partly drawn) [I-55, 3-[3-[5-[1-[[6-[(1R,4R)-5-[(E)-3-(2-hydroxyphenyl)-3-oxo-prop-1-enyl]-2,5-diazabicyclo[2.2.1]heptan-2-yl]-2-pyridyl]methyl]triazol-4-yl]pentyl]-2-oxo-benzimidazol-1-yl]piperidine-2,6-dione] | > 1000 | < 50 |
| O=C1CCC(n2c(=O)n(CCCCCCc3cn(Cc4cccc(N5C[C@H]6C[C@@H]5CN6/C=C/C(=O)c5ccccc5O)n4)nn3)c3ccccc32)C(=O)N1 (stereo partly drawn) [I-56] | > 1000 | < 50 |
| O=C1CCC(n2c(=O)n(CCCCCCCc3cn(Cc4cccc(N5C[C@H]6C[C@@H]5CN6/C=C/C(=O)c5ccccc5O)n4)nn3)c3ccccc32)C(=O)N1 (stereo partly drawn) [I-57] | > 1000 | < 50 |
| O=C1CCC(n2c(=O)n(CCCCCCCCc3cn(Cc4cccc(N5C[C@H]6C[C@@H]5CN6/C=C/C(=O)c5ccccc5O)n4)nn3)c3ccccc32)C(=O)N1 (stereo partly drawn) [I-58] | > 1000 | < 50 |
